In brackets after ≈: the same amount, converted by molar mass. Square brackets hold non-standard residues; d marks the D form. Peptide text beside a SMILES is read from it. Dap = NC[C@H](N)C(=O)O
Experiments:
E. coli (ATCC 25922) = conditions: ATCC 25922
From the text: (§1) With respect to the determination of antibacterial activity and antifungal activity of the antibacterial polypeptide compounds, the bacterial strains employed included: E. coli (ATCC 25922), E. coli (ATCC 43837), Pseudomonas aeruginosa (ATCC 27853), Klebsiella pneumoniae (ATCC 700603), Cronobacter sakazakii (ATCC 29544), Staphylococcus aureus (ATCC 29213), Bacillus subtilis (ATCC 23857) and Staphylococcus epidermidis (ATCC 12228); and the fungal strains employed included Candida albicans (ATCC 14053), Candida glabrata (ATCC 2001), Candida parapsilosis (ATCC 22019), Candida tropicalis (ATCC 750) and Candida krusei (ATCC 6258), all of which were standard strains from American Type Culture Collection. In addition, drug-resistant strains S-1a, S-2a, S-3a, S-4a, E-1b, E-2b, E-3b, E-4b, E-5b, P-1c, P-2c, P-3c, P-4c, P-5c, and clinically isolated fungal strains Candida glabrata 2-1 and Candida albicans 14-1, 14-2 and 14-3 were employed, all which were clinically isolated.
(§2) Simply, a proper amount of the cryopreserved bacterium or fungus was added to fresh MH/SD medium, and cultured on a shaker overnight at 180 rpm at 37° C. The obtained cells were seeded again and cultured on a shaker for 4-5 hours to obtain cells in logarithmic phase. The resulting cells were added to a 96-well plate (1×10^5 CFU/ml, 100 μL/well), and then 100 μL of polypeptide with different concentrations (1-256 μM) twice the final concentrations was added to corresponding well according to the 2-fold serial dilution method. The fresh medium was used as a negative control, which was prepared in triplicate for each concentration. After dosing, the 96-well plate was placed in an incubator at constant 37° C. and humidity for 12 hours to observe the results. According to naked eye observations, the concentration of the compound in the first transparent well following the turbid wells was recorded as the MIC of the compound, namely, the MIC value of the compound to the bacterium or fungus.

C. glabrata ATCC22019 = conditions: ATCC22019
From the text: as §1, §2

C. krusei ATCC6258 = conditions: ATCC6258
From the text: as §1, §2

C. tropicalis ATCC750 = conditions: ATCC750
From the text: as §1, §2

[1] = test system: Staphylococcus epidermidis (ATCC 12228); conditions: ATCC 12228
From the text: as §1, §2

[2] = test system: Cronobacter sakazakii (ATCC 29544); conditions: ATCC 29544
From the text: as §1, §2

[3] = test system: Staphylococcus aureus (ATCC 29213); conditions: ATCC 29213
From the text: as §1, §2

C. parapsilosis ATCC2001 = conditions: ATCC2001
From the text: as §1, §2

[4] = test system: Pseudomonas aeruginosa (ATCC 27853); conditions: standard strain
From the text: as §1, §2

[5] = test system: Bacillus subtilis (ATCC 23857); conditions: ATCC 23857
From the text: as §1, §2

C. albicans ATCC14053 = conditions: ATCC14053
From the text: as §1, §2

| Compound | MIC C. coli ATCC25922 (E. coli (ATCC 25922)) [µM] | MIC C. glabrata ATCC22019 (C. glabrata ATCC22019) [µM] | MIC C. krusei ATCC6258 (C. krusei ATCC6258) [µM] | MIC C. tropicalis ATCC750 (C. tropicalis ATCC750) [µM] | MIC S. epidermidis ATCC12228 [1] [µM] | MIC C. sakazakii ATCC29544 [2] [µM] | MIC S. aureus ATCC29213 [3] [µM] | MIC C. parapsilosis ATCC2001 (C. parapsilosis ATCC2001) [µM] | MIC P. aerugmosa ATCC27853 [4] [µM] | MIC B. subtilis ATCC23857 [5] [µM] | MIC C. albicans ATCC14053 (C. albicans ATCC14053) [µM] |
| --- | --- | --- | --- | --- | --- | --- | --- | --- | --- | --- | --- |
| CC(C)C[C@H](NC(=O)[C@H](CCCCN)NC(=O)[C@H](CC(C)C)NC(=O)[C@H](CCCCN)NC(=O)[C@H](CC(C)C)NC(=O)[C@H](CCN)NC(=O)[C@H](Cc1ccccc1)NC(=O)[C@@H]1CCCN1)C(N)=O [Compound 3, Pro-Phe-Dab-Leu-Lys-Leu-Lys-Leu-NH2] (HELM PEPTIDE1{P.F.[Dab].L.K.L.K.L.[am]}$$$$V2.0) | 32 (≈ 30.6 µg/mL) | 32 (≈ 30.6 µg/mL) | 64 (≈ 61.3 µg/mL) | 32 (≈ 30.6 µg/mL) | 16 (≈ 15.3 µg/mL) | 32 (≈ 30.6 µg/mL) | 128 (≈ 123 µg/mL) | 16 (≈ 15.3 µg/mL) | 32 (≈ 30.6 µg/mL) | 16 (≈ 15.3 µg/mL) | 32 (≈ 30.6 µg/mL) |
| CC(C)C[C@H](NC(=O)[C@H](CCN)NC(=O)[C@H](CC(C)C)NC(=O)[C@H](CO)NC(=O)[C@H](CC(C)C)NC(=O)[C@H](CCN)NC(=O)[C@H](Cc1c[nH]c2ccccc12)NC(=O)[C@@H]1CCCN1)C(N)=O [Compound 10, Pro-Trp-Dab-Leu-Ser-Leu-Dab-Leu-NH2] (HELM PEPTIDE1{P.W.[Dab].L.S.L.[Dab].L.[am]}$$$$V2.0) | 16 (≈ 14.8 µg/mL) | 16 (≈ 14.8 µg/mL) | 32 (≈ 29.7 µg/mL) | 8 (≈ 7.42 µg/mL) | 16 (≈ 14.8 µg/mL) | 8 (≈ 7.42 µg/mL) | 32 (≈ 29.7 µg/mL) | 16 (≈ 14.8 µg/mL) | 32 (≈ 29.7 µg/mL) | 16 (≈ 14.8 µg/mL) | 32 (≈ 29.7 µg/mL) |
| CC(C)C[C@H](NC(=O)[C@H](CN)NC(=O)[C@H](CC(C)C)NC(=O)[C@H](CN)NC(=O)[C@H](CC(C)C)NC(=O)[C@H](CN)NC(=O)[C@H](Cc1c[nH]c2ccccc12)NC(=O)[C@@H]1CCCN1)C(N)=O [Compound 11, Pro-Trp-Dap-Leu-Dap-Leu-Dap-Leu-NH2] (H-PW[Dap]L[Dap]L[Dap]L-NH2) | 16 (≈ 14.4 µg/mL) | 16 (≈ 14.4 µg/mL) | 32 (≈ 28.7 µg/mL) | 16 (≈ 14.4 µg/mL) | 16 (≈ 14.4 µg/mL) | 16 (≈ 14.4 µg/mL) | 32 (≈ 28.7 µg/mL) | 16 (≈ 14.4 µg/mL) | 64 (≈ 57.5 µg/mL) | 16 (≈ 14.4 µg/mL) | 64 (≈ 57.5 µg/mL) |
| H-PFKLKLHL-NH2 [Compound 1] | 32 | 32 | 64 | 32 | 32 | 32 | 128 | 32 | 32 | 32 | 32 |
| H-PFRLRLHL-NH2 [Compound 5] | 16 | 16 | 64 | 32 | 32 | 32 | 128 | 16 | 32 | 16 | 16 |
| H-PFRLRLRL-NH2 [Compound 7] | 8 | 8 | 32 | 32 | 16 | 32 | 64 | 8 | 8 | 8 | 8 |
